The values that follow come from patent publication US8222270B2 (Medicis Pharmaceutical Corporation, priority 2008, dated 2012).

Series [1] is described as follows: Skin, eye and vaginal irritation studies. Type of series: in vivo, rabbits. The source says:
The more severe dermal irritation seen in the rat is not predictive of human response.

Series [2] in a line: Acute single dose toxicity (oral, intraperitoneal, subcutaneous, intravenous). Type of series: in vivo.

With `CC(C)Cn1cnc2c(N)nc3ccccc3c21` [imiquimod, 1-(2-methylpropyl)-1H-imidazo[4,5-c]quinolin-4-amine], the Vaginal tract irritation result in series [1] (rat or rabbit, every other day for 10 days at 10 and 50 mg/dose) is recorded as “not irritating”. Besides, the Eye irritation entry in series [1] (unformulated at 100 mg/eye or formulated up to 5 mg/eye) was “mild or no eye irritation”. Moreover, in series [1] (unformulated at 500 mg or formulated up to 250 mg per site), the Skin irritation entry is listed as “non-irritating”. Moreover, the LD50 – broadly, the dose expected to kill half of the subjects tested – in series [2] (Monkey, intravenous bolus) was more than 6 mg/kg; in series [2] (Monkey, intravenous infusion), “≈8 mg/kg”; in series [2] (Monkey, oral), more than 200 mg/kg; in series [2] (Rat, subcutaneous), “≈20 mg/kg”. For the same compound, the “Single dose toxicity signs” value in series [2] (oral, intraperitoneal, subcutaneous or intravenous, lethal doses) is “central nervous system (CNS) stimulation and convulsions”.
